From US8628750B2, “Cancer imaging and treatment” (Technische Universitat Munchen, priority 2006, dated 2014)
Where two headings read alike, the source gives them in different places. Numbered stars: 1 amine (or outer) side, 2 acyl side, 3 side chain; on linkers, the order of the positions; unused ones are H or OH. Square brackets hold non-standard residues; d marks the D form. Peptide text beside a SMILES is read from it. * marks the point of attachment. X3 = O=C(c1ccc(F)cc1)N(CCC[C@H](N[*:1])C(=O)[*:2])Cc1ccccc1; X1 = CN(CCC[C@H](C(=O)[*:2])N(C)[*:1])C(=O)c1ccc(F)cc1; X2 = O=C([C@H](CCCNCc1cccc2ccccc12)N[*:1])[*:2]; X4 = O=C([C@H](CCCNCc1ccc2ccccc2c1)N[*:1])[*:2]; 2Nal = N[C@@H](Cc1ccc2ccccc2c1)C(=O)O; Benzoyl(4-F) = O=C(c1ccc(F)cc1)*; dOrn = NCCC[C@@H](N)C(=O)O; Orn = NCCC[C@H](N)C(=O)O

Tests used:
human CXCR4 [1] = biological target: T1, human CXCR4 (Homo sapiens, UniProt P61073); assay: cell-based; assay type: binding; parameters: Jurkat cells that endogenously express the CXCR4 receptor; endogenous in cells; host or cells: Jurkat (ATCC)
Method: For receptor binding assays cells were resuspended in PBS/0.2% BSA. A total of 200 μl of the suspension containing 400,000 cells (Jurkat, CMS5) or 200,000 cells (CMS5/CXCR4) were incubated with 25 μl of the tracer solution (containing 3.1 kBq, approx. 0.1 nM) and 25 μl of the diluent or the competitor at different concentrations. […] After shaking for 2 h at room temperature, the incubation was terminated by centrifugation at 700×g and 4° C. for 4 min. Cell pellets were washed once with cold PBS followed by a second centrifugation step or for internalization studies, two times with an acidic wash buffer (20 mM NaOAc, pH5.0). Cell bound radioactivity was determined by using a gamma counter. Experiments were repeated 2-3 times in duplicates or triplicates. IC50 values of the binding curves were calculated by nonlinear regression on a one-site or two-site competition based model using Prism 3.0 (Graph Pad Software, Inc, San Diego). KD and Bmax values were determined by nonlinear regression with the Prism 3.0 according to the manufacturer's protocol.

human CXCR4 [2] = biological target: T1, human CXCR4
Method: CXCR4 expression on the cell surface of trypsinized cells was determined using a phycoerythrine (PE)-labeled monoclonal rat antibody with specificity for human CXCR4 (1D9, BD Biosciences Pharmingen, Heidelberg, Germany). Trypsinized cells were washed with FACS buffer (PBS, 0.5% FCS) and 1×10^6 cells were stained with 0.5 μg antibody for 30 min. in the dark at 4° C. Cells were extensively washed with ice-cold FACS buffer and analyzed by flow cytometry. Nonspecific staining was assessed by PE-conjugated rat IgG2b,κ (BD Biosciences Pharmingen, Heidelberg, Germany). […] CXCR-4 staining was plotted against EGFP fluorescence (FL1).
(adapted from protocols published previously)[7, 8]; controls were incubated with diluent (PBS/0.1% BSA). Samples were immediately transferred to ice to avoid further internalization, centrifuged, washed with PBS/0.5% BSA and FACS staining for CXCR4 was performed as indicated above.

T1 sequence (P61073 whole entry): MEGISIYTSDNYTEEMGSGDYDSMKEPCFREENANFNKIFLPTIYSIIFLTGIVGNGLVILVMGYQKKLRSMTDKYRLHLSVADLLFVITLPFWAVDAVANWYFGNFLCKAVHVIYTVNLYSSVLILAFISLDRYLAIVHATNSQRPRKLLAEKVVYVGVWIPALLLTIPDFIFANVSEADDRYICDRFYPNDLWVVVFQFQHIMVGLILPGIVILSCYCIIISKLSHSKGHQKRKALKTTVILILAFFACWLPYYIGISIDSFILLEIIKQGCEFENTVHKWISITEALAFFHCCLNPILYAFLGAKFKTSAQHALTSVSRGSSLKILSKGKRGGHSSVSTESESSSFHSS

Compound | IC50 (human CXCR4 [1]) [µM] | other results
N=C(N)NCCC[C@@H]1NC(=O)[C@H](CCCNC(=O)c2ccc(F)cc2)NC(=O)[C@@H](Cc2ccc(O)cc2)NC(=O)CNC(=O)[C@H](Cc2ccc3ccccc3c2)NC1=O [cyc[D-Tyr-Orn(FB)-Arg-Nal-Gly]] (cyclo([dY][Orn](Benzoyl(4-F))R[2Nal]G)) | 0.011 | –
N=C(N)NCCC[C@@H]1NC(=O)[C@H](CCCN(Cc2ccccc2)C(=O)c2ccc(F)cc2)NC(=O)[C@@H](Cc2ccc(O)cc2)NC(=O)CNC(=O)[C@H](Cc2ccc3ccccc3c2)NC1=O [cyc[D-Tyr-Orn(Bz,FB)-Arg-Nal-Gly]] (cyclo([2Nal]G[dY][X3]R)) | 0.1 | –
N=C(N)NCCC[C@@H]1NC(=O)[C@H](CCCNCc2cccc3ccccc23)NC(=O)[C@@H](Cc2ccc(O)cc2)NC(=O)CNC(=O)[C@H](Cc2ccc3ccccc3c2)NC1=O [cyc[D-Tyr-Orn(N1)-Arg-Nal-Gly]] (cyclo([dY][X2]R[2Nal]G)) | 0.04 ± 0.003 | –
SDF-1α | – | cells stained positive for CXCR4 after pre-incubation (human CXCR4 [2]; CMS5/CXCR4 cells, 100 nM SDF-1α, 1 hr at 37° C., control-treated […]): 54.7%; mean fluorescence intensity of CXCR4 staining (human CXCR4 [2]; CMS5/CXCR4 cells, mock treated 209.0): 80.5; mean fluorescence intensity of CXCR4 staining (human CXCR4 [2]; Jurkat cells, drop from 385.4): 155.4; CXCR4-background staining (human CXCR4 [2]; parental CMS5 cells, in the presence of SDF-1α, from 7.9): 2.7%
N=C(N)NCCC[C@@H]1NC(=O)[C@H](CCCNCc2ccc3ccccc3c2)NC(=O)[C@@H](Cc2ccc(O)cc2)NC(=O)CNC(=O)[C@H](Cc2ccc3ccccc3c2)NC1=O [cyc[D-Tyr-Orn(N2)-Arg-Nal-Gly]] (cyclo([dY][X4]R[2Nal]G)) | 0.049 ± 0.001 | –
N=C(N)NCCC[C@@H]1NC(=O)[C@@H](CCCNC(=O)c2ccc(F)cc2)NC(=O)[C@@H](Cc2ccc(O)cc2)NC(=O)CNC(=O)[C@H](Cc2ccc3ccccc3c2)NC1=O [cyc[D-Tyr-D-Orn(FB)-Arg-Nal-Gly]] (cyclo([2Nal]G[dY][dOrn](Benzoyl(4-F))R)) | 0.086 | –
CN(CCC[C@@H]1C(=O)N[C@@H](CCCNC(=N)N)C(=O)N[C@@H](Cc2ccc3ccccc3c2)C(=O)NCC(=O)N[C@H](Cc2ccc(O)cc2)C(=O)N1C)C(=O)c1ccc(F)cc1 [cyc[D-Tyr-(Me)D-Orn(Me,FB)-Arg-Nal-Gly]] (cyclo([2Nal]G[dY][X1]R)) | 0.059 | –
N=C(N)NCCC[C@@H]1NC(=O)[C@H](CCCNC(=N)N)NC(=O)[C@@H](Cc2ccc(O)cc2)NC(=O)CNC(=O)[C@H](Cc2ccc3ccccc3c2)NC(=O)[C@H](Cc2ccc3ccccc3c2)NC1=O [BL 42, cyc[D-Tyr-Arg-Arg-Nal-Nal-Gly]] (cyclo([2Nal][2Nal]G[dY]RR)) | > 1 | –
